Results from US12491170B2, “Stable treprostinil prodrugs” (United Therapeutics Corporation, priority 2020, dated 2025).

How the values were obtained:
[1] = target: prostaglandin I2 (PGI2) receptor (IP) (Homo sapiens, UniProt P43119); experiment: IP receptor cAMP agonist assay (CHO-K1 cells); format: cell-based; details: relative to treprostinil EC50 values, * partial agonists or ambiguous dose-response curves
Method: (§1) Cyclic AMP assay kit: Multiscreen™ TR-FRET cAMP 1.0 No Wash Assay Kit (Multispan, Inc.)
(§2) Cells were thawed from frozen cells and resuspended in assay buffer at desired concentrations. cAMP or Calcium assays were performed according to the manufacturer's protocol using Multiscreen™ TR-FRET cAMP 1.0 No Wash Assay Kit or Multiscreen™ Calcium 1.0 No Wash Kit.
(§3) Gas Cyclic AMP (cAMP) Assay: In agonist mode testing, cells were seeded in a 384-well plate at an appropriate density and then were treated with compounds and incubated at 37° C. for 20 minutes. The reaction was terminated by […] trFluor™ Eu-labeled cAMP and trFluor™ 650-labeled anti-cAMP antibody in lysis buffer. […] All testing wells contained 0.1% DMSO in the final concentrations.
(§4) Data in graphs are represented in Mean±SD. Dose-dependent responses were fitted with sigmoidal dose-response curves allowing variable slopes using GraphPad Prism version 6 (Graphpad Prism).
(§5) These studies used cell lines overexpressing either human IP, EP2 or DP1, or EP1 receptors, and following incubation with varying concentrations of compounds, cAMP levels were measured using Fluorescence Resonance Energy Transfer (FRET).

PGE2 receptor 1 (EP1) = target: T1, PGE2 receptor 1 (EP1) (Homo sapiens, UniProt P34995); experiment: EP1 receptor calcium agonist assay (HEK293T cells); format: cell-based; details: Table 22; relative to treprostinil EC50 values; * partial agonists or ambiguous dose-response curves
T1 sequence (P34995 1-402): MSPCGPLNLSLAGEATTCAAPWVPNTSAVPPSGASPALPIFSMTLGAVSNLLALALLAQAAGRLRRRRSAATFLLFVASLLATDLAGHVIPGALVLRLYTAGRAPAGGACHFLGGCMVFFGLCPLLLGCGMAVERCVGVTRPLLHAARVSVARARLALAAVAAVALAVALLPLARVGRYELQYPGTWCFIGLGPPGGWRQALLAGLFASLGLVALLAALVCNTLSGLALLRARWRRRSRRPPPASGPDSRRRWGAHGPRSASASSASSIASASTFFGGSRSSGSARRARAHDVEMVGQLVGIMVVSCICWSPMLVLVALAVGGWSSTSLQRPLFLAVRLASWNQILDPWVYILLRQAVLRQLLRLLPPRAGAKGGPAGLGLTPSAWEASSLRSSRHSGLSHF
Method: Calcium assay kit: Multiscreen™ Calcium 1.0 No Wash Kit (Multispan, Inc., Cat #MSCA01-1)
• EP1 Calcium and DP1 cAMP Assays: HBSS plus 20 mM HEPES • EP2 and IP1 cAMP Assays: 1 mM IBMX in HBSS plus 20 mM HEPES Instruments: FlexStation III (Molecular Devices) and FLIPR 384 (Molecular Devices)
as §2
Calcium Assay: Cells were seeded in a 384-well plate at an appropriate density. The calcium assay was conducted according to the manufacturer's protocols (Multiscreen Calcium 1.0 No Wash Assay Kit). The calcium dye loading buffer was added to the cells and incubated for 1 hour at 37° C. For agonist mode, cells were injected with Iloprost control agonist or test compound by FLIPR and calcium mobilization was monitored for 180 seconds with compound injected into the wells at the 19th second. Fluorescent emissions were read at 525 nm with excitation at 490 nm in a FLIPR 384 instrument (Molecular Devices).
Calcium Assay: Calcium assay results are expressed as “RFU” as defined in figure below. Data are represented in Mean±SEM. Dose-response curves were fitted using “Sigmoidal dose-response (variable slope)” function in GraphPad Prism 6. EC50 values were calculated based on the fitted curves.
Prostaglandin receptor activity assessments with treprostinil and treprostinil analogues have been conducted, and a historical, positive control agonist for these receptors, iloprost (for IP, EP2 and EP1) or PGD2 (for DP1), was also included. These studies used cell lines overexpressing either human IP, EP2 or DP1, or EP1 receptors, and following incubation with varying concentrations of compounds, cAMP levels were measured using Fluorescence Resonance Energy Transfer (FRET). The 665/620 (acceptor/donor emission signals) ratio is inversely proportional to the concentration of cAMP.

[2] = target: T2, prostaglandin D2 (PGD2) receptor 1 (DP1) (Homo sapiens, UniProt Q13258); experiment: DP1 receptor cAMP agonist assay (HEK293T cells); format: cell-based; details: for DP1 Relative to Tre: relative to treprostinil EC50 values, * partial agonists or ambiguous dose-response curves
T2 sequence (Q13258 1-359): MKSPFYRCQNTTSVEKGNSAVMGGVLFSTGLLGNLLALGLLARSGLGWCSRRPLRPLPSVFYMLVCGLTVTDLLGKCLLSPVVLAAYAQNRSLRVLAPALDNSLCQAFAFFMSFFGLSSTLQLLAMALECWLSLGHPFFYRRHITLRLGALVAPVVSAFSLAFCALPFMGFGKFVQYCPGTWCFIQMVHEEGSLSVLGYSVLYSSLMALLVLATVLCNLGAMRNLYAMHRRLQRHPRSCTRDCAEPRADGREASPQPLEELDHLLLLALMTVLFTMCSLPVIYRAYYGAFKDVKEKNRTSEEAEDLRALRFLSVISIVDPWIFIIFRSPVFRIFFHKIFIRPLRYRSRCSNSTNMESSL
Method: as §1, §2, §3, §4, §5

[3] = target: prostaglandin E2 (PGE2) receptor 2 (EP2) (Homo sapiens, UniProt P43116); experiment: EP2 receptor cAMP agonist assay (HEK293T cells); format: cell-based; details: for EP2 Relative to Tre: Table 22, relative to treprostinil EC50 values, * partial agonists or ambiguous dose-response curves
Method: as §1, §2, §3, §4, §5

[4] = Hydrolysis of prodrugs to treprostinil at pH 6, 7, 8 and 40 C; format: physicochemical
From the text: Tables 24, 25 and 26 present data for hydrolysis of selected treprostinil prodrugs at pH 6, 7 and 8, respectively, and 40 C.

[5] = oral delivery, animal studies; cited from earlier work
[6] = regardless of the route of administration; cited from earlier work
[7] = Stability in human subcutaneous skin homogenate

Sequence of prostaglandin I2 (PGI2) receptor (IP) (P43119 whole entry): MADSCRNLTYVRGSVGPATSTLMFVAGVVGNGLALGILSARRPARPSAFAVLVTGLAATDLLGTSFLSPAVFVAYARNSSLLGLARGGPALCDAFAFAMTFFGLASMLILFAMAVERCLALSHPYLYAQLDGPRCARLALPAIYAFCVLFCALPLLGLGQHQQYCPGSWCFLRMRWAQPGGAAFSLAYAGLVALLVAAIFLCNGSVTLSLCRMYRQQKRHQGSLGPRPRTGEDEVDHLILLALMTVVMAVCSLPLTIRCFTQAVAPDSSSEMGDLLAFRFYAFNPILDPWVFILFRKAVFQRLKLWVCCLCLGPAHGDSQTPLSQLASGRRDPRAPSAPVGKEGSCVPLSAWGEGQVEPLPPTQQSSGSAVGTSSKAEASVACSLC
Sequence of prostaglandin E2 (PGE2) receptor 2 (EP2) (P43116 whole entry): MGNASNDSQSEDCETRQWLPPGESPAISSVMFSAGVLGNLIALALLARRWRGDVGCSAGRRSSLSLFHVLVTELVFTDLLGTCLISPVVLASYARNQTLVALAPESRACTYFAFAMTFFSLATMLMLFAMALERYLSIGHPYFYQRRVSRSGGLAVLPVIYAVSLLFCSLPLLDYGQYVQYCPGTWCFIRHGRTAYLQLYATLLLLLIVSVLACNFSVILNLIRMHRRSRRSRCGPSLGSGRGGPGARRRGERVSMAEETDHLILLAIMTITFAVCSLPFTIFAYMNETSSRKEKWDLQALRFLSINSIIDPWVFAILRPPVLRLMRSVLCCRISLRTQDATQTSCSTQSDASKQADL

Compound: CCCCCC(CCC1C(O)CC2Cc3c(cccc3OCC(=O)O)CC21)OCOC(=O)C(C)(C)C (stereo not drawn) [Prodrug LII]
- IP Relative to Tre ([1]; Table 22): 527x
- EP1 Relative to Tre (PGE2 receptor 1 (EP1)): 133x*
- DP1 Relative to Tre ([2]; Table 22): 73x
- EP2 Relative to Tre [3]: 26x

Compound: CCCCCC(CCC1C(O)CC2Cc3c(cccc3OCC(=O)O)CC21)OC(=O)COc1ccc(OC(F)(F)F)cc1 (stereo not drawn) [Prodrug LXIV]
- IP Relative to Tre ([1]; Table 22): 162x*
- EP1 Relative to Tre (PGE2 receptor 1 (EP1)): 0.03x*
- DP1 Relative to Tre ([2]; Table 22): 38x
- Hydrolysis to treprostinil, % Area, t = 1 week ([4]; pH 6, 40 C.): 0.72 % Area
- Hydrolysis to treprostinil, % Area, t = 2 weeks ([4]; pH 6, 40 C.): 1.2 % Area
- Hydrolysis to treprostinil, % Area, t = 3 weeks ([4]; pH 6, 40 C.): 1.5 % Area
- Hydrolysis to treprostinil, % Area, t = 1 week ([4]; pH 7, 40 C.): 0.46 % Area
- Hydrolysis to treprostinil, % Area, t = 2 weeks ([4]; pH 7, 40 C.): 0.93 % Area
- Hydrolysis to treprostinil, % Area, t = 3 weeks ([4]; pH 7, 40 C.): 1.2 % Area
- Hydrolysis to treprostinil, % Area, t = 1 week ([4]; pH 8, 40 C.): 1.8 % Area
- Hydrolysis to treprostinil, % Area, t = 2 weeks ([4]; pH 8, 40 C.): 3.9 % Area
- Hydrolysis to treprostinil, % Area, t = 3 weeks ([4]; pH 8, 40 C.): 5.8 % Area
- EP2 Relative to Tre [3]: 24x*

Compound: CCCCCC(CCC1C(O)CC2Cc3c(cccc3OCC(=O)O)CC21)OC(=O)COc1ccccc1 (stereo not drawn) [Prodrug LXV]
- IP Relative to Tre ([1]; Table 22): 599x
- EP1 Relative to Tre (PGE2 receptor 1 (EP1)): 64x*
- DP1 Relative to Tre ([2]; Table 22): 89x
- Hydrolysis to treprostinil, % Area, t = 1 week ([4]; pH 6, 40 C.): 0.13 % Area
- Hydrolysis to treprostinil, % Area, t = 2 weeks ([4]; pH 6, 40 C.): 0.29 % Area
- Hydrolysis to treprostinil, % Area, t = 3 weeks ([4]; pH 6, 40 C.): 0.39 % Area
- Hydrolysis to treprostinil, % Area, t = 1 week ([4]; pH 7, 40 C.): 0.96 % Area
- Hydrolysis to treprostinil, % Area, t = 2 weeks ([4]; pH 7, 40 C.): 1.9 % Area
- Hydrolysis to treprostinil, % Area, t = 3 weeks ([4]; pH 7, 40 C.): 2.7 % Area
- Hydrolysis to treprostinil, % Area, t = 1 week ([4]; pH 8, 40 C.): 6.0 % Area
- Hydrolysis to treprostinil, % Area, t = 2 weeks ([4]; pH 8, 40 C.): 11.4 % Area
- Hydrolysis to treprostinil, % Area, t = 3 weeks ([4]; pH 8, 40 C.): 16.9 % Area
- EP2 Relative to Tre [3]: 187x*

Compound: CCCCC[C@H](O)CC[C@@H]1[C@H]2Cc3cccc(OCC(=O)OCC)c3C[C@H]2C[C@H]1O [Treprostinil ethyl ester, reference compound]
- IP Relative to Tre ([1]; Table 22): 535x
- EP1 Relative to Tre (PGE2 receptor 1 (EP1)): 30x
- DP1 Relative to Tre ([2]; Table 22): 18x
- EP2 Relative to Tre [3]: 11x

Compound: CCCCC[C@H](O)CC[C@@H]1[C@H]2Cc3cccc(OCC(=O)O)c3C[C@H]2C[C@H]1O [Treprostinil]
- first-pass effect [5]: approximately 60%
- half-life once absorbed [6]: about 1 hour

Compound: treprostinil diphosphate [Prodrug LXXIII]
- IP Relative to Tre ([1]; Table 22): 208x
- IP Relative to Tre ([1]; Table 23): 208x
- DP1 Relative to Tre ([2]; Table 22): 217x
- DP1 Relative to Tre ([2]; Table 23): 217x
- Activity at the DP1 receptor compared to treprostinil ([2]; summary of findings): several hundred-fold less active
- AUC ([7]; human): 2.744 µmol·min/L
- Mono AUC (treprostinil formed) ([7]; human): 2.744 µmol·min/L
- Percent Remaining (Avg, n = 3) 0 min ([7]; pooled human skin homogenate, 1 μM, 37° C., 0 min): 100%
- Percent Remaining (Avg, n = 3) 30 min ([7]; pooled human skin homogenate, 1 μM, 37° C., 30 min): 86.2%
- Percent Remaining (Avg, n = 3) 60 min ([7]; pooled human skin homogenate, 1 μM, 37° C., 60 min): 71.2%
- Percent Remaining (Avg, n = 3) 120 min ([7]; pooled human skin homogenate, 1 μM, 37° C., 120 min): 64.0%
- Hydrolysis to treprostinil, % Area, t = 1 week ([4]; pH 6, 40 C.): 0.00 % Area
- Hydrolysis to treprostinil, % Area, t = 2 weeks ([4]; pH 6, 40 C.): 0.00 % Area
- Hydrolysis to treprostinil, % Area, t = 3 weeks ([4]; pH 6, 40 C.): 0.00 % Area
- Hydrolysis to treprostinil, % Area, t = 1 week ([4]; pH 7, 40 C.): 0.00 % Area
- Hydrolysis to treprostinil, % Area, t = 2 weeks ([4]; pH 7, 40 C.): 0.00 % Area
- Hydrolysis to treprostinil, % Area, t = 3 weeks ([4]; pH 7, 40 C.): 0.00 % Area
- Hydrolysis to treprostinil, % Area, t = 1 week ([4]; pH 8, 40 C.): 0.00 % Area
- Hydrolysis to treprostinil, % Area, t = 2 weeks ([4]; pH 8, 40 C.): 0.00 % Area
- Hydrolysis to treprostinil, % Area, t = 3 weeks ([4]; pH 8, 40 C.): 0.00 % Area
- Activity at the EP2 receptor compared to treprostinil ([3]; summary of findings): inactive
